Laboratory results taken from PMC10831071, “Reaction hijacking inhibition of Plasmodium falciparum asparagine tRNA synthetase” (Nature Communications, 2024).
Where “and” joins values, the source holds several entries; their conditions need not be identical. Equal values may be shown once. Read-outs that look alike come from different tables or passages of the source.

Experiments:
P. falciparum (3D7) = assay: Activity against P. falciparum 3D7 cultures, 72 h (PfLDH growth inhibition / flow cytometry); format: cell-based, Plasmodium falciparum
Method: Antimalarial activity against P. falciparum 3D7 was tested by TCGLS, Kolkata, India, using the lactate dehydrogenase (PfLDH) growth inhibition assay. […] Plates were shaken to ensure mixing and were placed in the dark at 21 °C for 20 min. […] P. falciparum strain (3D7) was obtained from BEI Resources.
(§1) Viability was assessed in the second cycle by flow cytometry, following labeling with 2 μM Syto-61 (Thermo Fisher Scientific)[48],[49]. Viability represents the parasitemia normalized to untreated and “kill” controls that were treated with 2 μM dihydroartemisinin (DHA; Sigma-Aldrich) for 48–72 h. For drug pulse assays, tightly synchronized Cam3.II-rev[50] parasites (1–1.5% parasitemia, 0.2% final hematocrit) were added to the plates and incubated for 6 h. Drugs were removed and the parasitemia assessed in the trophozoite stage of the next cycle.

[1] = tested on: P. falciparum Cam3.II-rev; assay: Drug pulse (6 h) viability assay; format: cell-based, Plasmodium falciparum
Method: as §1

PfAsnRS [2] = target: PfAsnRS (Plasmodium falciparum, UniProt O96198); assay: biochemical
HsAsnRS = target: T1, HsAsnRS (Homo sapiens, UniProt O43776); assay: ATP consumption assay (Kinase-Glo), HsAsnRS; format: biochemical; details: for ATP consumption: HsAsnRS, normalised to 1 (Fig 3C)
T1 construct: HsAsnRS (residues M1–P548) and CDHsAsnRS (residues A98–P548); His6 (N, cleaved yes); made in house; host or cells: E. coli BL21 (DE3), pET11a
T1 sequence (O43776 1-548): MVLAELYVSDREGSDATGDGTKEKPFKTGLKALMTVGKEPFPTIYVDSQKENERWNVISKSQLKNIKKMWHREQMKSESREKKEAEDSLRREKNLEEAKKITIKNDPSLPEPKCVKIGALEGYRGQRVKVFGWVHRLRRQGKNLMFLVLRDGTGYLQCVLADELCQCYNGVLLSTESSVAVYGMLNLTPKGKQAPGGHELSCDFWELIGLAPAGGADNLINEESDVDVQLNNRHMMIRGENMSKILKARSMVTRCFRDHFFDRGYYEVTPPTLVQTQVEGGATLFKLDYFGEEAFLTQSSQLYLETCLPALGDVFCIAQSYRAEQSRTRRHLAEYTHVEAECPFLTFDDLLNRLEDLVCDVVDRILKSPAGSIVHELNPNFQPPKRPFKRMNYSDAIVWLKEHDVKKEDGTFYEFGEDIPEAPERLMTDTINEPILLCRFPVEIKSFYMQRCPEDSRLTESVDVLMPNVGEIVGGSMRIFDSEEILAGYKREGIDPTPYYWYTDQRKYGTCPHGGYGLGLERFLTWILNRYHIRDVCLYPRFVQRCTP

PfAsnRS [3] = assay: LC-MS of Asn-OSM-S-106 adduct generated by recombinant PfAsnRS; format: biochemical, Plasmodium falciparum; details: 1 μM PfAsnRS, 10 μM OSM-S-106, 1 h, 37 °C; individual experiments
Method: The reaction buffer consists of 100 mM HEPES pH 7.5 (KOH), 160 mM KCl, 3.5 mM MgCl2, 1 mM DTT. The mixture was incubated at 37 °C for 1 h. After that, an equal volume of 8 M urea was added to the mixture. Finally, trifluoroacetic acid was added to a final concentration of 1%. The sample was centrifuged at 15,000 × g for 10 min and the supernatant was used for LCMS analysis. […] Quantification of the conjugates was done using Skyline (version 21.1.0.278).
Samples were analyzed by reversed-phase ultra-high-performance liquid chromatography (UHPLC) coupled to tandem mass spectrometry (MS/MS) employing a Vanquish UHPLC linked to an Orbitrap Fusion Lumos mass spectrometer (Thermo Fisher Scientific, San Jose, CA, USA) operated in positive ion mode. Solvent A was 0.1% formic acid/10 mM ammonium acetate in water and solvent B was 0.1% formic acid/10 mM ammonium acetate in acetonitrile. […] Finally, the percentage of solvent B was decreased to 0% in 0.1 min and maintained for 3.9 min.
MS experiments were performed using a Heated Electrospray Ionization (HESI) source. The spray voltage, flow rate of sheath, auxiliary and sweep gases were 3.5 kV, 20, 6, and 1 ‘arbitrary’ unit(s), respectively. The ion transfer tube and vaporizer temperatures were maintained at 350 °C and 400 °C, respectively, and the S-Lens RF level was set at 50%. […]

PfAsnRS (Plasmodium falciparum, UniProt O96198), sequence (O96198 entry or part of it): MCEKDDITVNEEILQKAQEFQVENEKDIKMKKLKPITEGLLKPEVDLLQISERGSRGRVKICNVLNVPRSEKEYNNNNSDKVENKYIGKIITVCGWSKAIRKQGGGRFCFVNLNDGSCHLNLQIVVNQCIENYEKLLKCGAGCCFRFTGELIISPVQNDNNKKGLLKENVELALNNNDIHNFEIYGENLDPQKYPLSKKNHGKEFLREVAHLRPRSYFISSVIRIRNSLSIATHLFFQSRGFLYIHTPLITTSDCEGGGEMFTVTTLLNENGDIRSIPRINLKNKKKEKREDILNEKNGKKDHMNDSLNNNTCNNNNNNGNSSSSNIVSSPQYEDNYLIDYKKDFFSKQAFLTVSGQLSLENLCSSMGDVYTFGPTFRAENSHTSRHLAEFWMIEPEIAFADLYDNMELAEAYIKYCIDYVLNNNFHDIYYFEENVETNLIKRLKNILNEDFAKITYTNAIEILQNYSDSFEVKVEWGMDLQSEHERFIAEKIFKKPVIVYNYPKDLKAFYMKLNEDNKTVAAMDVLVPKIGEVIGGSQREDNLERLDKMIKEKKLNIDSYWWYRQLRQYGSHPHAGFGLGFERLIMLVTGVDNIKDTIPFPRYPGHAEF

`Nc1ncnc2cc(-c3cccc(S(N)(=O)=O)c3)sc12` [OSM-S-106] was tested, and the IC50 (P. falciparum (3D7); Plasmodium falciparum, 3D7, 72 h, read-out: Pf3D7 IC50(72 h), 72 h, mean ± SD or duplicate values) was 58 ± 17 nM, the IC50 (P. falciparum (3D7); Plasmodium falciparum, 3D7, read-out: amount needed to kill parasite cultures) was roughly 60 nM and the IC50 (P. falciparum (3D7); read-out: Pf3D7 IC50 (72h), individual biological repeats (source data of Table 1)) was 61.1 nM and 52.7 nM and 87.1 nM and 79.6 nM and 50.5 nM and 48.8 nM and 37.9 nM and 43.7 nM. The Viability ([1]; 78.1 nM, 6 h pulse, individual experiments, 0 nM = 100) was 93.5356 and 88.7263, the Viability ([1]; 156.3 nM, 6 h pulse, individual experiments, 0 nM = 100) was 81.4036 and 83.8337 and the Viability ([1]; 312.5 nM, 6 h pulse, individual experiments, 0 nM = 100) was 81.9846 and 75.9519. For the same molecule, the Viability ([1]; 625 nM, 6 h pulse, individual experiments, 0 nM = 100) was 76.0359 and 75.5937, the Viability ([1]; 1250 nM, 6 h pulse, individual experiments, 0 nM = 100) was 77.505 and 78.8039 and the Viability ([1]; 2500 nM, 6 h pulse, individual experiments, 0 nM = 100) was 63.2365 and 57.9681. For the same molecule, the Viability ([1]; 5000 nM, 6 h pulse, individual experiments, 0 nM = 100) was 58.8326 and 46.673 and 10.7308, the Viability ([1]; 10000 nM, 6 h pulse, individual experiments, 0 nM = 100) was 6.448 and 2.352 and 1.857 and the Viability ([1]; 20000 nM, 6 h pulse, individual experiments, 0 nM = 100) was 0 and 0.3604 and 0.5288. The Viability ([1]; 40000 nM, 6 h pulse, individual experiments, 0 nM = 100) was 1.032 and 0 (2×), the viability at 0.0781 µM ([1]; Plasmodium falciparum, 6 h, 78.1 nM, 6 h pulse, individual experiments, 0 nM = 100) was 77.5% and the viability at 0.1563 µM ([1]; Plasmodium falciparum, 6 h, 156.3 nM, 6 h pulse, individual experiments, 0 nM = 100) was 80.2%. It also gave a viability at 0.3125 µM ([1]; Plasmodium falciparum, 6 h, 312.5 nM, 6 h pulse, individual experiments, 0 nM = 100) of 81.3%, a viability at 0.625 µM ([1]; Plasmodium falciparum, 6 h, 625 nM, 6 h pulse, individual experiments, 0 nM = 100) of 79.9% and a viability at 1.25 µM ([1]; Plasmodium falciparum, 6 h, 1250 nM, 6 h pulse, individual experiments, 0 nM = 100) of 79.8%. The viability at […] ([1]; Plasmodium falciparum, 6 h, 2500 nM, 6 h pulse, individual experiments, 0 nM = 100) was 77.1%, the IC50 ([1]; Plasmodium falciparum, 6 h, read-out: IC50 (Viability)) was 4700 nM and the ATP consumption (PfAsnRS [2]; 0.1 μM OSM-S-106, PfAsnRS + tRNA, 0 μM = 100, 0.1 µM) was 82.5658 and 96.0922. The ATP consumption (PfAsnRS [2]; 0.1 μM OSM-S-106, PfAsnRS - tRNA, 0 μM = 100, 0.1 µM) was 102.037 and 98.4072 and 106.756 and 97.2403 and 101.662, the ATP consumption (PfAsnRS [2]; 0.1 μM OSM-S-106, PfAsnRS, normalised to 1 (Fig 3C), 0.1 µM) was 0.9643 and 0.9875 and the ATP consumption (PfAsnRS [2]; 1 μM OSM-S-106, PfAsnRS + tRNA, 0 μM = 100, 1 µM) was 57.1862 and 87.1941. For the same molecule, the ATP consumption (PfAsnRS [2]; 1 μM OSM-S-106, PfAsnRS - tRNA, 0 μM = 100, 1 µM) was 113.687 and 120.029 and 93.4234 and 93.1495 and 103.899, the ATP consumption (PfAsnRS [2]; 1 μM OSM-S-106, PfAsnRS, normalised to 1 (Fig 3C), 1 µM) was 0.7028 and 0.7102 and the ATP consumption (PfAsnRS [2]; 3 μM OSM-S-106, PfAsnRS, normalised to 1 (Fig 3C), 3 µM) was 0.5774 and 0.6156. For the same molecule, the ATP consumption (PfAsnRS [2]; 5 μM OSM-S-106, PfAsnRS + tRNA, 0 μM = 100, 5 µM) was 38.7619 and 47.6862, the ATP consumption (PfAsnRS [2]; 5 μM OSM-S-106, PfAsnRS - tRNA, 0 μM = 100, 5 µM) was 106.249 and 114.714 and 99.7656 and 89.6731 and 97.6484 and the ATP consumption (PfAsnRS [2]; 10 μM OSM-S-106, PfAsnRS + tRNA, 0 μM = 100, 10 µM) was 33.3781 and 42.1739. For the same molecule, the ATP consumption (PfAsnRS [2]; 10 μM OSM-S-106, PfAsnRS - tRNA, 0 μM = 100, 10 µM) was 118.679 and 119.307 and 117.388 and 114.394 and 95.1041 and 101.36, the ATP consumption (PfAsnRS [2]; 10 μM OSM-S-106, PfAsnRS, normalised to 1 (Fig 3C), 10 µM) was 0.4326 and 0.4705 and the ATP consumption (PfAsnRS [2]; 25 μM OSM-S-106, PfAsnRS + tRNA, 0 μM = 100, 25 µM) was 31.8347 and 29.629. The ATP consumption (PfAsnRS [2]; 25 μM OSM-S-106, PfAsnRS - tRNA, 0 μM = 100, 25 µM) was 125.392 and 106.541 and 117.104 and 104.95 and 102.467 and 90.9619, the ATP consumption (PfAsnRS [2]; 30 μM OSM-S-106, PfAsnRS, normalised to 1 (Fig 3C), 30 µM) was 0.3585 and 0.3795 and the ATP consumption (PfAsnRS [2]; 100 μM OSM-S-106, PfAsnRS + tRNA, 0 μM = 100, 100 µM) was 21.4279 and 12.1476. The ATP consumption (PfAsnRS [2]; 100 μM OSM-S-106, PfAsnRS - tRNA, 0 μM = 100, 100 µM) was 100.893 and 101.422 and 99.2831 and 94.8016 and 84.8517, the ATP consumption (PfAsnRS [2]; 100 μM OSM-S-106, PfAsnRS, normalised to 1 (Fig 3C), 100 µM) was 0.3092 and 0.3431 and the ATP consumption (PfAsnRS [2]; 200 μM OSM-S-106, PfAsnRS - tRNA, 0 μM = 100, 200 µM) was 112.741 and 109.993 and 91.5345 and 106.529 and 72.1689. For the same molecule, the ATP consumption (PfAsnRS [2]; 200 μM OSM-S-106, PfAsnRS, normalised to 1 (Fig 3C), 200 µM) was 0.2731 and 0.3306, the ATP consumption (PfAsnRS [2]; 500 μM OSM-S-106, PfAsnRS - tRNA, 0 μM = 100, 500 µM) was 107.256 and 120.979 and 131.723 and 125.52 and 90.3898 and 80.1015 and the IC50 (PfAsnRS [2]; IC50, ATP consumption, 0.05 μM PfAsnRS, E. coli tRNA present, 37 °C, 1 h (Fig. 3C, D)) was 6200 nM. For the same molecule, the IC50 (PfAsnRS [2]; IC50, ATP consumption, minus E. coli tRNA, 0.5 μM enzyme, […] (Fig. 3B)) was greater than 500000 nM, the IC50 (PfAsnRS [2]; IC50, ATP consumption, plus E. coli tRNA, 0.5 μM enzyme, 37 °C, […] (Fig. 3B)) was 7300 nM and the IC50 (PfAsnRS [2]; concentration needed to induce 50% inhibition of ATP consumption) was roughly 1000 nM. The ATP consumption (HsAsnRS; 0.1 μM OSM-S-106) was 0.9809 and 0.9695 and 0.9878, the IC50 (HsAsnRS; 0.2 μM HsAsnRS, E. coli tRNA present, 37 °C, 1 h (Fig. 3C, D)) was greater than 100000 nM and the ATP consumption (HsAsnRS; 1 μM OSM-S-106) was 0.993 and 0.9826 and 1. The ATP consumption (HsAsnRS; 3 μM OSM-S-106) was 0.9931 and 0.9791 and 0.9532, the ATP consumption (HsAsnRS; 10 μM OSM-S-106) was 0.9721 and 1 and 0.9745 and the ATP consumption (HsAsnRS; 30 μM OSM-S-106) was 0.9297 and 0.9566 and 0.9615. The ATP consumption (HsAsnRS; 100 μM OSM-S-106) was 0.955 and 0.928 and 0.9784, the ATP consumption (HsAsnRS; 200 μM OSM-S-106) was 0.929 and 0.9898 and the “MS peak area (Asn-OSM-S-106 adduct)” value (PfAsnRS [3]) was 50050244 and 46285516 and 50264000 and 46572204.
